This is an account of results in patent publication US11939612B2, “Process for preparing sphingolipids” (Evonik Operations GmbH, priority 2018, dated 2024).

Data set [1] can be described thus: Hair breakage measurement (Cyclic Tester), repair after acidic straightening. As to conditions: acid-straightened ethnic hair, test conditioner, 5 treatments, FIG. 3. As to the method:
Ethnic hair was acid-straightened and aftertreated with a conditioner that contained one of the claimed compositions with elevated triglyceride content, consisting of: 10% olive oil-based ceramide (Example 2). For comparison, the process was conducted with a corresponding amount of pure ceramide NG or pure olive oil.
The repair effect and the boosting of the CMC complex by means of Hair fatigue alpha were measured.
Ethnic hair was chemically straightened. For this purpose, an acidic standard formulation having a pH of about 1-2 was used in combination with the use of a straightening iron. Subsequently, the hair was treated as follows: • 1. Washing with a shampoo consisting of sodium lauryl ether sulfate and cocamidopropylbetaine. • 2. Application of the test conditioner; the contact time was 5 min. Subsequently, the hair tresses were rinsed under flowing tap water at a temperature of 37° C. for 1 min. • 3. Drying of the hair tresses with a hairdryer for 3 minutes.
These three treatment steps were conducted a total of 5×. […]
For quantification of the repair effect, a hair breakage measurement was conducted (Cyclic Tester, Diastron Limited, UK). […] The number of extension cycles survived is recorded and serves to calculate the probability of survival. […]

A short description of data set [2]: Solubility temperature and crystal-free incorporation into cosmetic oils. In kind it is physicochemical. The settings on record: for Appearance at RT: after cooling. As to the method:
For this purpose, the solubility temperatures of the sphingolipids were ascertained: A final concentration of 0.1% ceramide in cosmetic oil was chosen. The ceramide compositions were heated and stirred gradually in the cosmetic oils in a beaker on a hotplate. The solubility temperature was attained as soon as the solution was clear. Subsequently, the mixture was stirred at the solubility temperature ascertained for 1 hour. After it had cooled down to room temperature, the formulation was examined.

The mark [3] stands for this setting: 0.1% ceramide in Mineral Oil (non-polar).
Where [4] appears, read: 0.1% ceramide in Octyldodecanol (polar).
Where [5] appears, read: 0.1% ceramide in TEGOSOFT APM (polar).
[6] abbreviates: 0.1% ceramide in TEGOSOFT CT (polar-medium polar).
[7] abbreviates: 0.1% ceramide in TEGOSOFT M (medium polar).
Where [8] appears, read: 0.1% ceramide in TEGOSOFT OS (non-polar).

With ceramide NG, the “repair effect (probability of survival in the hair breakage test)” value in data set [1] is reported as “not able to achieve any repair effect”.

As to ceramide NP [Pure ceramide NP], the Solubility temperature was 110 °C in data set [2] (setting [3]); 70 °C in data set [2] (setting [4]); 65 °C in data set [2] (setting [5]); 95 °C in data set [2] (setting [6]); 90 °C in data set [2] (setting [7]); 100 °C in data set [2] (setting [8]). Also, the “Appearance at RT” value in data set [2] (setting [3]), in data set [2] (setting [4]), in data set [2] (setting [5]), in data set [2] (setting [6]), in data set [2] (setting [7]) and in data set [2] (setting [8]) was “crystals” in each case.
